{"source": "BigSolDB 2.1", "data": [{"compound": "COc1ccc(C(=O)O)c(OC)c1", "values": [{"measurement": "solubility (mole fraction)", "setting": "in ethanol, 288.15 K", "result": 0.0116}, {"measurement": "solubility (mole fraction)", "setting": "in ethanol, 293.15 K", "result": 0.0149}, {"measurement": "solubility (mole fraction)", "setting": "in ethanol, 298.15 K", "result": 0.0191}, {"measurement": "solubility (mole fraction)", "setting": "in ethanol, 303.15 K", "result": 0.0244}, {"measurement": "solubility (mole fraction)", "setting": "in ethanol, 308.15 K", "result": 0.0312}, {"measurement": "solubility (mole fraction)", "setting": "in ethanol, 313.15 K", "result": 0.0398}, {"measurement": "solubility (mole fraction)", "setting": "in ethanol, 318.15 K", "result": 0.0507}, {"measurement": "solubility (mole fraction)", "setting": "in ethanol, 323.15 K", "result": 0.0644}, {"measurement": "solubility (mole fraction)", "setting": "in ethyl acetate, 288.15 K", "result": 0.0165}, {"measurement": "solubility (mole fraction)", "setting": "in ethyl acetate, 293.15 K", "result": 0.0205}, {"measurement": "solubility (mole fraction)", "setting": "in ethyl acetate, 298.15 K", "result": 0.0253}, {"measurement": "solubility (mole fraction)", "setting": "in ethyl acetate, 303.15 K", "result": 0.0312}, {"measurement": "solubility (mole fraction)", "setting": "in ethyl acetate, 308.15 K", "result": 0.0382}, {"measurement": "solubility (mole fraction)", "setting": "in ethyl acetate, 313.15 K", "result": 0.0467}, {"measurement": "solubility (mole fraction)", "setting": "in ethyl acetate, 318.15 K", "result": 0.0567}, {"measurement": "solubility (mole fraction)", "setting": "in ethyl acetate, 323.15 K", "result": 0.0687}, {"measurement": "solubility (mole fraction)", "setting": "in isobutanol, 288.15 K", "result": 0.0059}, {"measurement": "solubility (mole fraction)", "setting": "in isobutanol, 293.15 K", "result": 0.0079}, {"measurement": "solubility (mole fraction)", "setting": "in isobutanol, 298.15 K", "result": 0.0105}, {"measurement": "solubility (mole fraction)", "setting": "in isobutanol, 303.15 K", "result": 0.0139}, {"measurement": "solubility (mole fraction)", "setting": "in isobutanol, 308.15 K", "result": 0.0183}, {"measurement": "solubility (mole fraction)", "setting": "in isobutanol, 313.15 K", "result": 0.0239}, {"measurement": "solubility (mole fraction)", "setting": "in isobutanol, 318.15 K", "result": 0.0311}, {"measurement": "solubility (mole fraction)", "setting": "in isobutanol, 323.15 K", "result": 0.0401}, {"measurement": "solubility (mole fraction)", "setting": "in isopropanol, 288.15 K", "result": 0.0059}, {"measurement": "solubility (mole fraction)", "setting": "in isopropanol, 293.15 K", "result": 0.0081}, {"measurement": "solubility (mole fraction)", "setting": "in isopropanol, 298.15 K", "result": 0.0109}, {"measurement": "solubility (mole fraction)", "setting": "in isopropanol, 303.15 K", "result": 0.0147}, {"measurement": "solubility (mole fraction)", "setting": "in isopropanol, 308.15 K", "result": 0.0195}, {"measurement": "solubility (mole fraction)", "setting": "in isopropanol, 313.15 K", "result": 0.0259}, {"measurement": "solubility (mole fraction)", "setting": "in isopropanol, 318.15 K", "result": 0.034}, {"measurement": "solubility (mole fraction)", "setting": "in isopropanol, 323.15 K", "result": 0.0445}, {"measurement": "solubility (mole fraction)", "setting": "in n-butanol, 288.15 K", "result": 0.0086}, {"measurement": "solubility (mole fraction)", "setting": "in n-butanol, 293.15 K", "result": 0.0112}, {"measurement": "solubility (mole fraction)", "setting": "in n-butanol, 298.15 K", "result": 0.0146}, {"measurement": "solubility (mole fraction)", "setting": "in n-butanol, 303.15 K", "result": 0.0188}, {"measurement": "solubility (mole fraction)", "setting": "in n-butanol, 308.15 K", "result": 0.0242}, {"measurement": "solubility (mole fraction)", "setting": "in n-butanol, 313.15 K", "result": 0.0309}, {"measurement": "solubility (mole fraction)", "setting": "in n-butanol, 318.15 K", "result": 0.0393}, {"measurement": "solubility (mole fraction)", "setting": "in n-butanol, 323.15 K", "result": 0.0498}, {"measurement": "solubility (mole fraction)", "setting": "in n-propanol, 288.15 K", "result": 0.0087}, {"measurement": "solubility (mole fraction)", "setting": "in n-propanol, 293.15 K", "result": 0.0114}, {"measurement": "solubility (mole fraction)", "setting": "in n-propanol, 298.15 K", "result": 0.015}, {"measurement": "solubility (mole fraction)", "setting": "in n-propanol, 303.15 K", "result": 0.0195}, {"measurement": "solubility (mole fraction)", "setting": "in n-propanol, 308.15 K", "result": 0.0252}, {"measurement": "solubility (mole fraction)", "setting": "in n-propanol, 313.15 K", "result": 0.0325}, {"measurement": "solubility (mole fraction)", "setting": "in n-propanol, 318.15 K", "result": 0.0417}, {"measurement": "solubility (mole fraction)", "setting": "in n-propanol, 323.15 K", "result": 0.0532}]}]}
